Measurements published in patent US20240166702A1, “COMPOSITIONS AND METHODS FOR TREATING BREAST CANCER” (Arizona Board of Regents on Behalf of The University of …, priority 2021, published 2024).

Test system: EGFR dependent mammary gland tumors of WAP-TGFα mice
Assay: Tumor regression study in WAP-TGFα transgenic mice
Assay type: in vivo, mouse
From the text: Mice were bred continuously to induce transgene expression and palpated weekly for tumor formation. […] A. Changes in tumor size from entry into study until end of study are shown for each individual tumor, (*) indicate tumors that entered the study at size greater than 500 mm^3, all other tumors entered the study at ˜100 mm^3. B. a Kaplan-Meier survival curve was generated showing when mice were sacrificed by either reaching tumor burden (2000 mm^3) or the end of the study (p=0.0002). C. Upon sacrifice tumors were harvested and fixed in 10% formalin and embedded in paraffin. Slides were stained with hematoxylin and eosin and imaged at 20×. D. Protein lysates were generated from tumors upon sacrifice and probed for the indicated proteins.
C. […] D. Cells were treated similarly as in C., fractionated and evaluated for protein localization by immunoblot.
Mice are continually bred to activate the pregnancy-dependent WAP promoter, which drives expression of the EGFR ligand Transforming Growth Factor alpha (TGFα) strictly to the mouse mammary glands. This model stochastically forms unifocal mammary adenocarcinomas through a process that begins with mammary hyperplasia, followed by tumor formation over approximately 8 months. […] No difference in weight or behavior or grooming was observed. Therefore 10 μg/g body weight was used for subsequent studies.
When tumors reached >100 mm^3, IV injections began at 3×/week, 10 μg/g body weight and tumors were measured 3×/week with calipers. Animals were injected for 4 weeks or until they reached maximal tumor burden, defined as a single tumor measuring 2000 mm^3. […] The WAP-TGFα is a spontaneous model in which each tumor arises and progresses in a heterogeneous fashion. Each tumor was evaluated separately to determine the overall impact of SNX1.3 treatment (FIG. 3A). […] In this study, mice were sacrificed after 4 weeks of injections or once they reached tumor burden, represented by the Kaplin-Meyer graph (FIG. 3B).

[1] = 10 μg/g IV 3×/week, first to last measurement

CC[C@H](C)[C@H](NC(=O)[C@@H](NC(=O)[C@H](Cc1c[nH]cn1)NC(=O)[C@H](CC(N)=O)NC(=O)[C@H](CCCCN)NC(=O)[C@H](C)NC(=O)[C@H](CCCNC(=N)N)NC(=O)[C@H](C)NC(=O)[C@H](CCC(N)=O)NC(=O)[C@H](CCCNC(=N)N)NC(=O)[C@H](C)NC(=O)[C@H](C)NC(=O)[C@H](C)NC(=O)[C@H](CCCNC(=N)N)NC(=O)[C@H](C)NC(=O)[C@H](Cc1ccc(O)cc1)NC(C)=O)C(C)C)C(=O)N[C@@H](CCCCN)C(=O)N[C@@H](Cc1ccc(O)cc1)C(=O)N[C@@H](CC(C)C)C(=O)N[C@@H](CCC(=O)O)C(=O)N[C@H](C(=O)N[C@@H](CC(C)C)C(=O)N[C@@H](CC(C)C)C(=O)N[C@@H](Cc1ccc(O)cc1)C(=O)N[C@@H](CO)C(=O)N[C@@H](CCC(N)=O)C(=O)N[C@@H](CCC(N)=O)C(=O)N[C@@H](CCC(N)=O)C(=O)N[C@@H](CC(C)C)C(=O)N[C@@H](C)C(=O)N[C@@H](CCCCN)C(=O)N[C@@H](Cc1ccc(O)cc1)C(=O)N[C@@H](Cc1c[nH]c2ccccc12)C(=O)N[C@@H](CCC(=O)O)C(=O)N[C@@H](C)C(=O)N[C@@H](Cc1ccccc1)C(=O)N[C@@H](CC(C)C)C(N)=O)[C@@H](C)O [cSNX1.3] was tested, and the “mice that reached maximal tumor burden (2000 mm^3) before the end of the study” value (10 μg/g IV 3×/week, 4 weeks, p=0.0002 between groups) was 1/6, the tumors that regressed [1] was 7/11 and the “tumors with no change in tumor volume” value [1] was 2/11. For the same compound, the “tumors that grew through the study” value (10 μg/g IV 3×/week, the growing cSNX1.3 tumors entered at greater than 500 mm^3) was 2, the average tumor regression (10 μg/g body weight IV 3×/week, 4 weeks or until tumor burden, n=11 tumors) was 4 mm^3/day and the tumors fully regressed (measured with calipers, confirmed during necropsy) was 3. The “impact on animal weight” value (weighed throughout the study, 10 μg/g IV 3×/week) was “no impact”.
